According to PMC11204507, “Mechanistic Insights into the Neurotoxicity of 2,5-Dimethoxyphenethylamines (2C) and Corresponding N-(2-methoxybenzyl)phenethylamine (NBOMe) Drugs” (Journal of Xenobiotics, 2024):
Structures can show the parent of a compound that is named as a salt.

Experiments:
[1] = test system: differentiated SH-SY5Y cells; set-up: method as in PMID 37631071, PMID 25900438; conditions: same in vitro model; cited from earlier work
[2] = test system: differentiated SH-SY5Y cells; set-up: method as in PMID 37631071, PMID 25900438; conditions: same in vitro model; cited from earlier work; remark: listed apart in the source
[3] = test system: differentiated SH-SY5Y cells; conditions: same experimental conditions; cited from earlier work
serotonergic B65 cells = test system: serotonergic B65 cells; set-up: method as in doi:10.1007/s11419-020-00527-w; conditions: cited from earlier work
[4] = test system: differentiated SH-SY5Y cells; assay: Neutral red (NR) uptake cytotoxicity assay; assay type: cell-based, human
Procedure: The cells were seeded at a density of 25,000 cells/cm^2. To achieve a more mature neuron-like phenotype, SH-SY5Y cells were initially cultured in a complete medium supplemented with RA (10 µM). Subsequently, 3 days post-seeding, TPA (80 nM) was added to each well, and the cells were maintained for another 3 days until use, thus achieving a dopaminergic phenotype. In all the experiments, the cells were used between passages 22 and 28.
The differentiated SH-SY5Y cells (25,000 cells/cm^2) and primary rat cortical cultures (150,000 cells/cm^2) were seeded onto 96-well plates as previously described.
Accordingly, 6 days after seeding (differentiated SH-SY5Y cells) or at 8 DIV (primary cultures), the cells were exposed, for 24 h (37 °C, 5% CO2), to different concentrations of the drugs (0–1000 µM). Thus, the tested concentrations ranged from 0 to 1000 µM for 2C-T-2 and 2C-T-4; 0 to 500 µM for 2C-T-7; 0 to 250 µM for 25T2-NBOMe, and 0 to 100 µM for 25T4-NBOMe and 25T7-NBOMe.
The NR uptake assay is based on the detection of viable cells through the incorporation of the NR dye by the cell’s lysosomes. In brief, after 24 h of exposure to the tested drugs, the differentiated SH-SY5Y cells and primary rat cortical cultures were incubated with NR (50 µg/mL in complete medium) for 90 or 210 min, respectively, at 37 °C, in a 5% CO2-95% air atmosphere. To extract the absorbed dye, an acidified ethanol solution was used, and the absorbance was then measured at 540 nm in a multi-well plate reader (PowerWaveX, BioTek Instruments, Winooski, VT, USA). The cytotoxicity was estimated by the percentage of NR uptake relative to the control cells, and a minimum of 4 independent experiments were conducted in triplicate.

[5] = set-up: method as in earlier work; conditions: reported CHI values of the calibration set; cited from earlier work
[6] = test system: differentiated SH-SY5Y cells; assay: Total glutathione (tGSH) levels, DTNB-GSH recycling assay; assay type: cell-based, human; conditions: 100 μM, 24 h; control 100.0%
Description: Glutathione has a critical role in cellular physiology, playing multiple essential roles in maintaining cellular health and function, including antioxidant defense, detoxification, and cellular signaling. The 5,5′-dithiobis(2-nitrobenzoic acid) (DTNB)-GSH recycling assay was used to measure total GSH (tGSH), which includes the reduced (GSH) and oxidized (GSSG) forms of glutathione. The assay relies on the reaction of GSH with DTNB, producing the yellow-colored 5-thio-2-nitrobenzoic acid (TNB). Thus, the TNB generated is directly proportional to the amount of GSH present in the sample [31].
Thus, the SH-SY5Y cells were seeded onto 6-well plates (25,000 cells/cm^2) following the previously described seeding and differentiation protocol. On the day of the experiment, the cells were exposed to different concentrations of the tested drugs (EC20 and EC50) for 24 h (37 °C, 5% CO2). At the end of the incubation period, the cells were centrifuged (5 min, 250 g, 4 °C). For the analysis of extracellular GSH levels, the supernatants were collected, and proteins precipitated with 30% HClO4 for at least 30 min (4 °C). For the analysis of intracellular GSH levels, after collecting the supernatants, the cells were treated with 5% HClO4 for at least 30 min (4 °C). Subsequently, the acidic samples were collected from the plates and centrifuged (5 min, 16,000× g, 4 °C), and the supernatants were stored until further analysis (−80 °C). To assess protein content, the pellets were resuspended in 1M NaOH, maintained at 4 °C overnight, and stored until further analysis (−20 °C). A Bio-Rad DC™ protein assay kit (Bio-Rad Laboratories, Hercules, CA, USA) was used to analyze protein content, in accordance with the manufacturer’s guidelines.
Before the tGSH quantification, the acidic samples were diluted (1:2) with 5% HClO4, and the diluted samples/standards were neutralized with an ice-cold KHCO3 solution (1:1) and centrifuged (5 min, 16,000× g, 4 °C).
Then, 100 µL of supernatant from each sample/standard was transferred into a 96-well plate and 65 µL of an extemporaneous reagent solution (0.68 mM NADPH and 3.96 mM DTNB prepared in a 7.5 pH phosphate buffer) was added to each well, and the plates were incubated for 15 min at 30 °C. After 15 min, 40 μL of a 10 U/mL glutathione reductase solution was added to each well and the formation of 5-thio-2-nitrobenzoic acid (TNB) was monitored every 10 s for 3 min (kinetic mode) at 415 nm in a multi-well plate reader (PowerWaveX, BioTek Instruments, Winooski, VT, USA).
The GSH levels were standardized to protein content. The results are presented as a percentage relative to the control cells (0 µM). A minimum of 6 independent experiments were conducted, in duplicate.
Glutamate/cysteine ligase (GCL), also recognized as gamma-glutamylcysteine synthetase (γ-GCS), is a key enzyme in the first step of glutathione biosynthesis, as it catalyzes the reaction between glutamate and cysteine to produce γ-glutamylcysteine. […] The SH-SY5Y cells were seeded onto 6-well plates (25,000 cells/cm^2) following the previously described seeding and differentiation protocol. On the day of the experiment, the cells were incubated with BSO (100 µM) for 24 h (37 °C, 5% CO2) and the quantification of GSH intracellular levels was achieved according to the previously described method in Section 2.11.

MAO-A and MAO-B = conditions: rat model; cited from earlier work
[7] = test system: differentiated SH-SY5Y cells; assay: Mitochondrial membrane potential, JC-1 dye; assay type: cell-based, human; conditions: positive control, 100 µM, 2 h
Description: Mitochondrial membrane potential (ΔΨm) is a valuable parameter that reflects the energy status and functional integrity of cells, and the JC-1 dye is widely used as an indicator of ΔΨm. In healthy cells with high ΔΨm, JC-1 forms J-aggregates that emit red fluorescence. In apoptotic or unhealthy cells with low ΔΨm, JC-1 remains in its monomeric form and emits green fluorescence. The ratio of red to green fluorescence intensity is proportional to the degree of polarization of the mitochondrial membrane (a higher ratio indicates a more polarized membrane).
Thus, the SH-SY5Y cells were seeded onto 24-well plates (25,000 cells/cm^2) following the previously described seeding and differentiation protocol. On the day of the experiment, the cells were exposed to different concentrations of the tested drugs (EC20 and EC50) for 24 h (37 °C, 5% CO2). CCCP (100 µM, 2 h) was used as a positive control for mitochondrial membrane depolarization. At the end of the incubation period, the medium was removed, and the cells were incubated, for 30 min, with 10 µM JC-1 under light protection (37 °C, 5% CO2). Subsequently, the plates were centrifuged (5 min, 300× g, room temperature), the supernatants were rejected, and the cells were washed 2 times with warm HBSS with calcium and magnesium. Fluorescence was recorded at the wavelengths of 485 nm excitation and 535 nm emission for JC-1 monomers and 535 nm excitation and 595 nm emission wavelengths for J-aggregates in a multi-well plate reader (PowerWaveX, BioTek Instruments, Winooski, VT, USA). The results are presented as the percentage of JC-1 red/green fluorescence ratio relative to the control cells, and a minimum of 5 independent experiments were conducted in triplicate.

## COc1cc([N+](=O)[O-])c(OC)cc1CCN [2C-N]
[1]
  tGSH content: significant decrease in the tGSH content
[2]
  ROS production: no ROS production
[3]
  drug-induced cytotoxicity upon MAO inhibition: significant increase in the drug-induced cytotoxicity was observed upon MAO inhibition

## COc1cc(CCN)c(OC)cc1Cl [2C-C, reference compound]
Serotonergic B65 cells
  mitochondrial production of ROS: no significant alterations

## C#CCN[C@@H]1CCc2ccccc21 [rasagiline, rasagiline mesylate, reference compound]
[4]; 1 μM, 24 h of exposure
  cytotoxicity, NR uptake: Neither clorgyline nor rasagiline (1 μM) showed significant cytotoxicity

## c1ccc2[nH]ccc2c1 [Indole]
[5]
  CHI0 pH 2.3: 72.1

## COc1ccc(N2CCNCC2)cc1 [MeOPP]
[1]
  tGSH content: significant decrease in the tGSH content
[2]
  ROS production: no ROS production

## NC(=O)N1c2ccccc2C=Cc2ccccc21 [Carbamazepine]
[5]
  CHI0 pH 2.3: 60.42

## c1cc2c(cc1CN1CCNCC1)OCO2 [MDBP]
[1]
  tGSH content: significant decrease in the tGSH content
[2]
  ROS production: no ROS production

## COc1cc2c(c(OC)c1OC)-c1ccc(OC)c(=O)cc1[C@@H](NC(C)=O)CC2 [Colchicine]
[5]
  CHI0 pH 2.3: 43.9

## c1ccc2[nH]cnc2c1 [Benzimidazole]
[5]
  CHI0 pH 2.3: 6.3

## C#CCN(C)CCCOc1ccc(Cl)cc1Cl [clorgyline, reference compound]
[4]; 1 μM, 24 h of exposure
  cytotoxicity, NR uptake: Neither clorgyline nor rasagiline (1 μM) showed significant cytotoxicity

## CCCCS(=N)(=O)CCC(N)C(=O)O [BSO, L-buthionine sulfoximine, reference compound]
[4]; 100 μM, 24 h (Figure S2: + 50 μM for an additional 24 h)
  cytotoxicity, NR uptake: No significant cytotoxic effects
[6]
  GSH intracellular levels, % of control cells: 9.2%

## CCC(=O)c1ccccc1 [Propiophenone]
[5]
  CHI0 pH 2.3: 77.4

## COc1cc([N+](=O)[O-])c(OC)cc1CCNCc1ccccc1OC [25N-NBOMe]
[3]
  drug-induced cytotoxicity upon MAO inhibition: significant increase in the drug-induced cytotoxicity was observed upon MAO inhibition

## CC(=O)Nc1ccc(O)cc1 [Paracetamol]
[5]
  CHI0 pH 2.3: 18.77

## FC(F)(F)c1cccc(N2CCNCC2)c1 [TFMPP]
[1]
  tGSH content: significant decrease in the tGSH content
[2]
  ROS production: no ROS production

## c1ccc(CN2CCNCC2)cc1 [BZP]
[1]
  tGSH content: significant decrease in the tGSH content
[2]
  ROS production: no ROS production

## CCCC(=O)c1ccccc1 [Butyrophenone]
[5]
  CHI0 pH 2.3: 87.3

## COc1cc(CCN)cc(OC)c1OC [mescaline]
[1]
  tGSH content: significant decrease in the tGSH content
[2]
  ROS production: no ROS production
[3]
  drug-induced cytotoxicity upon MAO inhibition: significant increase in the drug-induced cytotoxicity was observed upon MAO inhibition

## Cn1c(=O)c2c(ncn2C)n(C)c1=O [Caffeine, caffeine]
[5]
  CHI0 pH 2.3: 23.41

## COc1cc(CCN)c(OC)cc1C [2C-D]
MAO-A and MAO-B
  deamination by MAO-A and MAO-B: both isoenzymes can catalyze the deamination

## Cn1c(=O)c2[nH]cnc2n(C)c1=O [Theophyline, theophylline]
[5]
  CHI0 pH 2.3: 17.9

## CCc1cc(OC)c(CCN)cc1OC [2C-E]
MAO-A and MAO-B
  deamination by MAO-A and MAO-B: both isoenzymes can catalyze the deamination

## COc1cc(CCNCc2ccccc2OC)c(OC)cc1Cl [25C-NBOMe]
[1]
  tGSH content: significant decrease in the tGSH content
[2]
  ROS production: no ROS production

## N#CC(C#N)=NNc1cccc(Cl)c1 [CCCP, carbonyl cyanide 3-chlorophenylhydrazone, reference compound]
[7]
  mitochondrial membrane polarization (JC-1 red/green ratio), % of the control cells: 56.3%

## COc1ccccc1CNCCc1cc(OC)c(OC)c(OC)c1 [mescaline-NBOMe]
[1]
  tGSH content: significant decrease in the tGSH content
[2]
  ROS production: no ROS production
[3]
  drug-induced cytotoxicity upon MAO inhibition: significant increase in the drug-induced cytotoxicity was observed upon MAO inhibition
